Consider one compound from patent publication US20210115040A1, “OGA INHIBITOR COMPOUNDS” (Janssen Pharmaceutica NV, priority 2018, published 2021).

This assay concerns the target T1, OGA (Mus musculus, UniProt Q9EQQ9).
T1 construct: from tissue; host or cells: mouse brain (sagittal sections, forebrain area)
T1 sequence (Q9EQQ9 1-916): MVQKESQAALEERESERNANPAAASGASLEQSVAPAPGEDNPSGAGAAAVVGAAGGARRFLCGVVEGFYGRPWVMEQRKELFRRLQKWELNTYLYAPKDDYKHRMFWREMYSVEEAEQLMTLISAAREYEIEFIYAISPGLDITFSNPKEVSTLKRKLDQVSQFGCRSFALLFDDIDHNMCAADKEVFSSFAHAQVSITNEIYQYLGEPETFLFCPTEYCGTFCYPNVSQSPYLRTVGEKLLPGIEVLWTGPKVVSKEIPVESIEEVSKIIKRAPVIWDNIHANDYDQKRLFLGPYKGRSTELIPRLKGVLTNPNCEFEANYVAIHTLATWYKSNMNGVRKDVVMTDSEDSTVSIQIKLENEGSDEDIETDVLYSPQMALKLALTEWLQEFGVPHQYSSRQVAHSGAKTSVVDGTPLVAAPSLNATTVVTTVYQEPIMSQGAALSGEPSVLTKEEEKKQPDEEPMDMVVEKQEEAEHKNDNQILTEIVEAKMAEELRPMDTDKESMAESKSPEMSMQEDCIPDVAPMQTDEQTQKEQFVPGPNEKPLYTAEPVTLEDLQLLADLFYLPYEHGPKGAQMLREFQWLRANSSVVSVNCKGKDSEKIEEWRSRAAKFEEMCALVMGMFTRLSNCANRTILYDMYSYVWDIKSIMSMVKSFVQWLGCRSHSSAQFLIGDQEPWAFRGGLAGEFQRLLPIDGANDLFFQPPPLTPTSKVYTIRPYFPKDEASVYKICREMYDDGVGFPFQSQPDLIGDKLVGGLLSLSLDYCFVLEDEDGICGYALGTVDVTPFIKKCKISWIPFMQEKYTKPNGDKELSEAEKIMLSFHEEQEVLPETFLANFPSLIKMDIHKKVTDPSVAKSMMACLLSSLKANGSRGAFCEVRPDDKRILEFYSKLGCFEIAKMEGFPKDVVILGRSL
The experiment in a line: Ex vivo OGA occupancy assay using [3H]-ligand (brain sections, autoradiography). The conditions noted are these: po, Male NMRI or C57Bl6j mice, p.o., 24 h after administration, forebrain area, normalised to vehicle, read-out: Occupancy (% +/- sd). Type of assay: in vivo. How it is done: Male NMRI or C57Bl6j mice were treated by oral (p.o.) administration of vehicle or compound. Animals were sacrificed 24 hours after administration. Brains were immediately removed from the skull, hemispheres were separated and the right hemisphere, for ex vivo OGA occupancy assay, was rapidly frozen in dry-ice cooled 2-methylbutane (−40° C.). Twenty […]m-thick sagittal sections were cut using a Leica CM 3050 cryostat-microtome (Leica, Belgium), thaw-mounted on microscope slides (SuperFrost Plus Slides, Thermo Fisher Scientific) and stored at −20° C. until use. After thawing, sections were dried under a cold stream of air. The sections were not washed prior to incubation. The 10 minutes incubation with 3 nM [^3H]-ligand was rigorously controlled. All brain sections (from compound-treated and vehicle-treated animals) were incubated in parallel. After incubation, the excess of [^3H]-ligand was washed off in ice-cold buffer (PBS 1× and 1% BSA) 2 times 10 minutes, followed by a quick dip in distilled water. The sections were then dried under a stream of cold air.
Radioactivity in the forebrain area of brain slices was measured using a β-imager with M3 vision analysis software (Biospace Lab, Paris). Specific binding was calculated as the difference between total binding and non-specific binding measured in Thiamet-G (10 μM) treated sections. […]

Each structure is given as a SMILES string.

As to `Cc1cc(C2CCCN(C(C)c3ccc4sc(C)nc4n3)C2)cc(C)n1` (racemic) [Compound 39], the receptor occupancy at 25 mg/kg was 3.33%.
